Here are results for one compound from patent US20170341980A1, “NOBLE GAS NEUROPROTECTION AND NEUROREGENERATION FROM TREATMENT RELATED NEUROTOXICITY” (NOBLIS THERAPEUTICS, INC., priority 2016, published 2017).

The structures appear in SMILES notation.

Data set [1] has as its system patients with brain metastasis. In words: Clinical trial: cognitive function in brain metastasis patients under fractionated radiation, xenon versus air. Format: in vivo, human. The settings on record: vs air. The procedure:
(§1) A clinical trial is conducted in 20 patients with brain metastasis who receive 2 Gy to 100 Gy fractionated over 2-8 weeks. 10 patients are treated with 10-20 liters of 30% xenon every other day during radiation exposure. An additional 10 patients are treated with similar radiation regimen and administered 10-20 liters of air every other day during radiation exposure. […] Furthermore, verbal memory, as measured by the Hopkins Verbal Learning Test-Revised (HVLT-R), Cognitive flexibility as measured with the Controlled Oral Word Association (COWA), Word Fluency has measured with the Controlled Oral Word Association (COWA), Working memory has measured with the Wechsler Adult Intelligence Scale—Digit Span, Processing speed has measured with the Wechsler Adult Intelligence Scale—Digit Symbol, Motor dexterity has measured with the Grooved Pegboard (GP), Functional assessment, as measured by the Functional Assessment of Cancer Therapy-Brain (FACT-Br), all improved in the xenon treated group.

The test system of data set [2] is tumor growth. Put plainly: Clinical trial: tumor growth in brain metastasis patients receiving xenon versus air controls. Type of data set: in vivo, human. The settings on record: patients receiving xenon as compared to air controls. The procedure: as §1
[3] abbreviates: 10-20 liters of 30% xenon every other day during radiation exposure.

As for `[Xe]` [xenon], the “cognitive function as measured by HVLT-R Total Recall score (verbal learning and memory test)” value in data set [1] (10-20 liters of 30% xenon every other day during radiation exposure (2 Gy to 100 Gy fractionated over 2-8 weeks), at 3, 8, 12, and 24 weeks) is “preservation in cognitive function”. Besides, in data set [1] (setting [3]), the “Cognitive flexibility as measured with the Controlled Oral Word Association (COWA)” value is on record as “improved”; the “Functional assessment, as measured by the Functional Assessment of Cancer Therapy-Brain (FACT-Br)” value was “improved”; the “Motor dexterity measured with the Grooved Pegboard (GP)” value was “improved”; the “Processing speed measured with the Wechsler Adult Intelligence Scale—Digit Symbol” value is “improved”. In data set [1] (setting [3]), the “Word Fluency measured with the Controlled Oral Word Association (COWA)” value is reported as “improved”; the “Working memory measured with the Wechsler Adult Intelligence Scale—Digit Span” value is listed as “improved”; the “verbal memory, as measured by the Hopkins Verbal Learning Test-Revised (HVLT-R)” value is reported as “improved”. Besides, the “acceleration of tumor growth” value in data set [2] is given as “No acceleration of tumor growth”.
